Laboratory results from patent US20210251975A1, “USE OF CICLOPIROX FOR INHIBITING HBV CORE ASSEMBLY” (GWANGJU INSTITUTE OF SCIENCE AND TECHNOLOGY, priority 2018, published 2021).

Legend:
HBV [1] = assay: Screening of FDA-approved drug library: quantity of released HBV DNA from HepG2.2.15 cells; assay type: cell-based, Hepatitis B virus (HBV); settings: treated for 6 days
Experimental: (§1) After treating cells with drugs such as ciclopirox, entecavir, and/or tenofovir, the supernatant of the cells was collected. After adding to 30 μL of the supernatant 1×PBS of the same volume, 6 μL of 1 N NaOH was added. After incubation at 37° C. for 1 hour, 6 μL of Tris-HCl/HCl was added. Then, the protein was denatured by heat-treating at 98° C. for 5 minutes. After removing the denatured protein through centrifugation, the virus existing in the supernatant was quantified by real-time PCR.
For screening of a drug having inhibitory activity against HBV, an FDA-approved drug library with proven safety was used.
Specifically, after treating HBV-producing HepG2.2.15 cells with about 1,000 drugs at 1 mM every day for 3 days, the quantity of released HBV DNA was measured. After treating the cells with 19 drugs selected through the first screening for 6 days according to the same method, 13 drugs were selected by measuring HBV DNA (second screening). Entecavir, which is used as an HBV drug, was used as a positive control group.

[2] = molecular target: T1, HBV core and capsid proteins (Hepatitis B virus genotype D subtype ayw, UniProt P03146); assay: Expression of core and capsid proteins (immunoblot) for the 19 screened drugs; assay type: cell-based; settings: D in FIG. 1
T1 construct: expressed in transfected cells; host or cells: HepG2.2.15
T1 sequence (P03146 whole entry): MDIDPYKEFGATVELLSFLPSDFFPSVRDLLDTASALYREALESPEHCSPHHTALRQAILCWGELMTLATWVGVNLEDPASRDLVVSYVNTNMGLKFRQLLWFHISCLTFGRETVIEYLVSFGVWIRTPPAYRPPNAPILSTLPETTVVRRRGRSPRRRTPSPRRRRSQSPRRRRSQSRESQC
Source text: (§2) Results were expressed as mean±standard deviation and tested by the Student's t-test. *: p<0.05, ** p<0.01.
It was identified to be ciclopirox.

[3] = system: core protein 149 (CP149) dimers; assay: Core assembly reaction of purified core protein 149 (CP149) dimers, incl. sucrose gradient ultracentrifugation and electron microscopy; assay type: biochemical, Hepatitis B virus (HBV)
Source text: In addition, in order to investigate whether the core assembly is inhibited and the protein remains as dimers, reaction products were separated through ultracentrifugation at different sucrose concentrations after the assembly of CP149 under the assembly reaction conditions.

HBsAg protein = assay: Secreted HBsAg protein by ELISA in HBV-expressing and HBV-overexpressing cell lines; assay type: cell-based, Hepatitis B virus (HBV); settings: ciclopirox concentration gradient
Experimental: as §2
The secreted HBsAg protein of HBV was analyzed by enzyme-linked immunosorbent assay. Specifically, HBsAg-specific ELISA was used. A supernatant collected from the cells treated with each drug was analyzed using a kit (hepatitis B surface antigen Ab ELISA kit) according to the instruction of the manufacturer (Abnova).

HBV core protein [4] = assay: Structural analysis (crystals) of ciclopirox binding site of HBV core protein and Y118 mutation; set-up: species or system Hepatitis B virus (HBV)
Experimental: The secondary structure of the protein was computed using STRIDE. […] E and F in FIG. 3 show the ciclopirox-bound and ciclopirox-free sites of chains B and C.
Therefore, the ciclopirox binding site of the HBV core protein was investigated. Specifically, structural analysis of the core protein was conducted by forming crystals.

HBV [5] = assay: HBV DNA released out of or remaining in cells at ciclopirox concentration gradient; assay type: cell-based, Hepatitis B virus (HBV); settings: HBV-expressing (HepG2.2.15) and HBV-overexpressing cell lines, 6 days, increasing concentration
Source text: Specifically, A and B in FIG. 5 show a result of treating HepG2.2.15 cells and HBV-expressing liver cells with ciclopirox for 6 days and investigating the decrease of HBV DNA at different concentration gradients. C and D FIG. 5 show a result of investigating the inhibitory effect of ciclopirox by extracting HBV DNA from the cells rather than the DNA secreted out of the cells. Specifically, after lysing HepG2.2.15 cells and HBV-expressing liver cells and removing […] using micrococcal nuclease, virus DNA was extracted and its expression level was investigated. As a result, it was confirmed that HBV DNA was decreased according to the concentration gradient of ciclopirox.
as §1
After treating cells with drugs such as ciclopirox, entecavir, and/or tenofovir, the cells were washed with 1×PBS. Then, after lysing the cells and treating with nuclease, HBV DNA was extracted from the cells. […]

HBV [6] = assay: HBV infection system in NTCP-HepG2 and NTCP-Huh7 cells; assay type: cell-based, Hepatitis B virus (HBV); settings: NTCP-HepG2 and NTCP-Huh7, 14 days, concentration gradient
Experimental: Specifically, after treating HepG2 and Huh7 cell lines which express a receptor (NTCP) essential for HBV infection with ciclopirox for 6 hours, the supernatant of HepG2.2.15 cells were treated with ciclopirox. 16 hours later, after viral washing, followed by treating with ciclopirox every day for 14 days, the cells and cell supernatant were collected and analyzed. B and C in FIG. 6 show a result of investigating the expression of NTCP in the NTCP cell lines by immunoblot and flow cytometry. D to F in FIG. 6 show the HBV-inhibiting effect of ciclopirox in the virus infection system.
In addition, after treating HBV-infected liver cancer cell lines NTCP-HepG2 and NTCP-Huh7 with ciclopirox, the degree of HBV proliferation was analyzed. After pretreating the liver cancer cell lines with ciclopirox for 6 hours, the cells were incubated with ciclopirox and HBV for 16 hours. Then, the cells were analyzed after culturing for 14 days. This experimental procedure is schematically illustrated in A in FIG. 6. As shown in B and C in FIG. 6, the NTCP protein expressed from the liver cancer cells NTCP-HepG2 and NTCP-Huh7 was analyzed by immunoblot and flow cytometry.

HBV [7] = assay: Combination treatment of ciclopirox with entecavir or tenofovir in liver cancer cell lines; assay type: cell-based, Hepatitis B virus (HBV); settings: ciclopirox alone or plus 1 mM ETV or 1 mM TDF
Experimental: After treating with ciclopirox according to a concentration gradient, 1 mM ETV or 1 mM TDF was treated in combination.
After treating cells with drugs such as ciclopirox, entecavir, and/or tenofovir, the cells were washed with 1×PBS. Then, after lysing the cells and treating with nuclease, HBV DNA was extracted from the cells. The DNA was extracted according to the instruction of the manufacturer (InvivoGen).

HBV [8] = assay: HBV-expressing mouse (hydrodynamic injection of pAAV HBV 1.2x plasmid); assay type: in vivo
Experimental: Specifically, after expressing HBV in mouse by injecting using a hydrodynamic injection method an HBV-expressing pAAV HBV 1.2× plasmid into the mouse tail, the drug was treated every day for 5 days.
Specifically, HBV was produced in vivo by hydrodynamically injecting an HBV-expressing plasmid into mouse tail. Then, after treating with ciclopirox alone, tenofovir alone, or a combination of ciclopirox and tenofovir every day for 5 days, the degree of proliferation of HBV in mouse serum was investigated. The experimental procedure is schematically illustrated in A in FIG. 8.

HBV core protein [9] = assay: Core assembly in core protein-expressing and entire HBV protein-expressing cell lines
Experimental: Specifically, the isolated Cp149 dimeric protein was incubated with a core assembly reaction buffer (150 mM NaCl, 15 mM HEPES) and the drug at 37° C. for 1 hour. Then, after separating the protein on agarose gel, immunoblot was conducted using a rabbit polyclonal anti-HBV core antibody. In addition, for isolation of the core expressed in the cells, the cells were lysed with 1% NP-40 and ultracentrifuged (55,000 rpm) at 20° C. for 8 hours. The assembled core that settled down at the bottom was separated on agarose gel and then immunoblot was conducted using a rabbit polyclonal anti-HBV core antibody.

[10] = sucrose gradient 10% to 50%, ultracentrifugation, treated vs not treated

Compound: Cc1cc(C2CCCCC2)n(O)c(=O)c1 [ciclopirox]
- inhibition of released HBV DNA (second screening) (HBV [1]): consistent effects
- expression of the capsid protein [2]: remarkably inhibited
- expression of the core protein [2]: without affecting
- morphology of the assembled core (electron microscopic images) ([3]; E in FIG. 2): the size of the assembled core is enlarged by ciclopirox and the circular shape is destroyed
- assembly of the purified core protein 149 (CP149) dimers ([3]; assembly reaction buffer, 37° C., 1 hour, immunoblot): inhibited as the concentration of ciclopirox increased
- core-assembled CP149 (fractions 5-8) [3, 10]: decreased
- dimeric CP149 (fractions 1-3) [3, 10]: increased
- amount of the released HBsAg protein (HBsAg protein): no effect
- inhibition of core assembly with core protein mutated at Y118 (HBV core protein [4]; D in FIG. 3): mutation at Y118 reduces inhibition of core assembly
- binding to the HBV core protein (HBV core protein [4]; crystal structure, hexameric core protein, hydrogen bonding at tyrosine 118): binding directly to the HBV core protein
- quantity of HBV DNA released out of cells (HBV [5]): decreased
- quantity of HBV DNA remaining in cells (HBV [5]): decreased
- HBV DNA released out of the cells (HBV [6]): decrease
- HBV cccDNA remaining in the cells (HBV [6]): decrease
- HBV rcDNA remaining in the cells (HBV [6]): decrease
- quantity of the HBsAg protein secreted out of the cells (HBV [7]): No HBsAg-inhibiting effect
- HBV DNA 5 days after the treatment (HBV [8]; ciclopirox alone): almost nonexistent
- amount of HBV DNA in blood (HBV [8]; treated every day for 5 days): remarkably reduces
- amount of the HBsAg protein in blood (HBV [8]; treated every day for 5 days): no significant difference
- quantity of the HBV core protein in liver cells (HBV [8]; treated every day for 5 days): reduced
- core assembly in each cell line (HBV core protein [9]): inhibited according to the concentration gradient
